These results are taken from article PMC9365994, “Small molecules to regulate the GH/IGF1 axis by inhibiting the growth hormone receptor synthesis” (Frontiers in Endocrinology, 2022).

The subject of assay [1] is GH-induced GHR-Jak2-Stat5 signaling in IM9 lymphoblasts. In words: Flow cytometric (FACS) pSTAT5 test, GH-induced, IM9 cells in whole blood. To be noted: drugs 50 µM for 15 MIN.
Protocol: First round: The PerFix EXPOSE (Beckman Coulter), was used to fix and permeabilize cells according to the optimized procedure described in Malergue et al., 2015 ([36]). Samples were analyzed in FC500 MPL. Data were analyzed with Kaluza software (Beckman Coulter). Second round: the PerFix EXPOSE was used according to the IFU and samples were analyzed in a Navios Cytometer. The first screening used pure IM-9 cells, whereas in the second round they were spiked in 100 µL whole blood (EDTA tubes). 15 min after the inhibitory compounds, the activators were added for 20-30 min.
In short: A mixture of blood and
IM9 human lymphoblast was incubated with the drugs (50 µM) for 15 MIN; GH and GM-CSF
were added 7 min before the cells were fixed with formaldehyde. Blood cells are sensitive to
GM-CSF, and not to GH; IM9 cells are sensitive to GH. A mixture of three antibodies in three
colors; CD14-FITC, CD34-PE and p-Stat5-Alexa 647 was used to analyze the p-Stat5 levels
of monocytes and IM9 cells.
Fig. S8A. FACS plots of compounds that inhibit GH-induced GHR-Jak2-Stat5 signaling in IM9 lymphoblasts.
The end point of the signaling cascade is measured by assessing the phosphorylation status of STAT5.
Stat5. Conc of drugs: 1 mM; incubation time 30 min
Fig. S8B. […]
point of the signaling cascade is measured by assessing the phosphorylation status of STAT5.
The test system of assay [2] is phosphorylated fos-GHRct (fos-GHRct/Jak2 signaling). Briefly: Cell based primary screen: immune fluorescence (anti-GHR, anti-pY, anti-pJak2, anti-pSTAT5) of fos-GHRct-transfected γ2A iJak2 cells. To be noted: for IC50: Homo sapiens, Table_2.xlsx, second analogue set, read-out: GHR INHIBITORS, BM#, IC50. Details: species or system human. How it is done:
Drug handling and cell-based assays are detailed in Supplementary Data 1 , automation. High-Content StratoMineR ([35]). After incubation with the compounds, the cells were fixed and the fluorescence (anti-GHR, anti-pY, anti-pJak2, anti-pSTAT5) was quantitated.
As it was unknown whether the GH/IGF1 axis is druggable, we designed a broad strategy based on our previous studies in which soluble fos-zipped GHR cytosolic tails (fos-GHRct) can serve as signaling complexes if co-expressed with Jak ([32], [39]). Fos-GHRct expressed without Jak2 is immediately degraded by the ubiquitin pathway. Phosphorylated fos-GHRct (fos-pGHRct) detaches from Jak2 and unzips. Only unzipped fos-pGHRct are protected from proteasomal degradation and accumulate in the cell. […] For 6 scenarios the signal will be decreased: (1) inhibition of Jak2 kinase activity, (2) inhibition of fos-GHRct expression, (3) inhibition of the fos-GHRct : Jak2 interaction, (4) increased degradation of fos-pGHRct, (5) increased degradation of Jak2, and (6) dephosphorylation of fos-pGHRct ([32], [39]).
Figure 1 Diagram of the primary screen. […] If fos-GHRct and Jak2 bind via FERM and box-1, Jak2 gets activated and phosphorylates itself, the dimerized fos-GHRct and STAT5b. After phosphorylation of fos-GHRct, Jak2 and STAT5, the complex dissociates. As fos-pGHRct is protease-resistant, it accumulates in the cells. Unphosphorylated fos-GHRct is rapidly degraded. Steady state levels of fos-pGHRct are lower if one of the 6 scenarios is valid. The cell-based assay was performed in γ2A cells carrying inducible Jak2 (iJak2) or binding-deficient iJak2 Y119E (as control) ( Figure 2 ). […]
1. Cell based primary screen
The assay was based on Fos-zippered GHR cytosolic tails (fos-GHRct) subsequently acting […]
Fig S1A. Immune Fluorescence staining of γ2a Fig S1B. Immune Fluorescence staining of γ2a monoclonal cell line stably transfected with an monoclonal cell line stably transfected with an inducible Jak2 WT expression construct. inducible Jak2 Y119E expression construct. aim we used a human fibroblast cell line
From this line we generated doxycycline inducible Jak2 clones, expressing either wild type Jak2 or Y119E mutant Jak2 whose FERM domain does […]
To establish a sensitive test, sufficient […]
control the system, we used fos-GHRct mutated in box-1 or the cell line expressing mutant (Y119E) Jak2. The box-1 motif is the binding site of Jak2 in GHR; mutation of this motif (all four proline into alanine) is known to reduce the binding between GHR and Jak2. In the primary screen we measured 4 different signals: fos-GHRct (anti-GHR), tyrosine phosphorylated fos-GHRct (anti-pY), tyrosine phosphorylated Jak2 (anti-pY or anti- […]
inhibition of either fos-GHRct stabilization or fos-GHRct synthesis, are considered positive.
Immunoblots are not appropriate for high throughput screening. Using fos-GHRct-transfected cells as in Fig. S3 and pY-specific primary antibodies, we developed a high throughput screening assay based on pY-fos-GHRct immune fluorescent detection in 384-well plates with automated microscopy. […]
panel). From left to right: Dapi staining to visualize nuclei, fos-GHRct staining: GHRtails are detected by […]

In a further assay the test system is MM231. Details: method as in PMID 28576744, PMID 17463090. To be noted: cited from earlier work.
A further assay deals with hGH. Briefly: Steady state hGH in hGH-transfected Y2A cells (general protein synthesis). It is filed as cell-based, human. To be noted: drug treatment overnight (10 µM); CHX 40 µg/ml. From the text: Figure S14. The best 5 compounds from the dose-response curves were used to test their effect on cell proliferation. They inhibit proliferation of triple negative human breast cancer (MDA-MB-231) cells and colon […]
8. Effect of selected drugs on GH synthesis […]
intracellular steady state concentration of a secretory glycoprotein (human growth hormone, hGH): its steady state is the result of synthesis, glycosylation, intracellular transport and […]
amount of hGH, while none of the compounds changed the steady state concentration in the […]
Figure S15. Y2A cells were transfected with 5 µg of a hGH-pcDNA construct in a 24-well plate; drug treatment overnight (10 µM) as indicated (CHX, cycloheximide 40 µg/ml). […]
control drug, 10 µM. Right lane: human GH 20 ng (control). Only cycloheximide decreased the steady state concentration of hGH in the cells. hGH in the lysates was detected with a rabbit anti-GH antibody.
Furqan, M., N. Mukhi, B. Lee, and D. Liu. 2013. Dysregulation of JAK-STAT pathway in hematological malignancies and JAK inhibitors for clinical application. Biomarker research. 1:5.
Malergue, F., A. van Agthoven, C. Scifo, D. Egan, and G.J. Strous. 2015. Automation of a phospho-STAT5 staining procedure for flow cytometry for application in drug discovery. J Biomol Screen. 20:416-421.
Nespital, T., L.M. van der Velden, A. Mensinga, E.D. van der Vaart, and G.J. Strous. 2016. […]

The test system of assay [3] is COLO-205 human colon cancer cells. Further details: method as in PMID 15736405. To be noted: cited from earlier work.

Regarding `O=C1C(Cl)=C/C(=N/S(=O)(=O)c2cccs2)c2ccccc21` [AQ-390/41647621], the “inhibition in the FACS assay” value in assay [1] is given as more than 30%. One may read the IC50 as the concentration needed to halve the response being measured. Take `CCOC(=O)CCOc1c(OC)cc(NCc2ccc3nc(N)nc(N)c3c2C)cc1OC` [BM005]: the half-maximal inhibitory concentration (IC50) in assay [2] stood at 200 nM. The same measure, in the same setting: in the case of `Cc1nc(N)nc(N)c1CCC(C)c1ccc(F)cc1` (stereo not drawn) [BM006] it was 200 nM. With `CC(C)(/C=C/c1c(N)nc(N)nc1CCC(F)(F)F)c1ccc(C(F)(F)F)cc1` [BM007], the IC50 in assay [2] turned out to be 400 nM. On the same count and under the same terms, in the case of `Cc1cc(C)cc(-c2ccc3nc(N)nc(N)c3c2C)c1` [BM008] it was 500 nM; in that of `Nc1nc(N)c2c(ccc3c2ccn3CC2CC2)n1` [BM009], 600 nM; in that of `Cc1nc(N)nc(NCc2ccccn2)c1/C=C/C(C)(C)c1ccc(C(F)(F)F)cc1` [BM010], 800 nM. Consider `Cc1c(-c2cccc(S(C)(=O)=O)c2)ccc2nc(N)nc(N)c12` [BM011], for which the IC50 in assay [2] was 900 nM. Still for that read-out and setting: then `Cc1c(-c2cccc(C(F)(F)F)c2)ccc2nc(N)nc(N)c12` [BM013], with 900 nM; and `CC1(C)Cc2ccc3nc(N)nc(N)c3c2O1` [BM014], with 900 nM.

For `CCn1c(C(=O)N(C2CC2)C2CC2)cc2c3c(ncn3C)c(Nc3cc(C)n(C)n3)nc21` [BMS-911543, reference compound], the “IC50, percentage pY positive cells” value in assay [2] (γ2A cells treated for 24 h, Fig S5) was “nanomolar range”.

Turning to `Cc1ccc(S(=O)(=O)OCC(=O)Nc2ccc(C(=O)O)c(O)c2)cc1` [S3I-201], the “tumor response (in words)” value in the assay on MM231 is listed as “tumor regression”. `C[C@@H]1C[C@@H]([C@H](O)CC2CC(=O)NC(=O)C2)C(=O)[C@@H](C)C1` [cycloheximide]: the “steady state concentration of hGH in the cells” value in the assay with hGH was “decreased”. Regarding pegvisomant, in assay [3], the “decrease in tumor weight compared to controls” value is reported as 44% and the “decrease in tumor-volume compared to controls” value was 39%.
